# Source: US11690816B2, “Unit doses for immediate release of GHB or of one of the therapeutically acceptable salts thereof, administered orally, and the use thereof to maintain alcohol abstinence” (DEBREGEAS ET ASSOCIES PHARMA, priority 2016, dated 2023)
# Assays:
# [1] = patients with moderate or severe liver disease, same administered dose; cited from earlier work
# [2] = AUC and CMax values dependent on the doses used; details: human, in vivo, oral
# Excerpt: The applicant has found the following AUC and CMax values, which are dependent on the doses used, for doses of 0.37 g, 0.75 g, 1.25 g and 1.75 g: […]
# [3] = system: alcohol-dependent patients; experiment: phase IIb/III clinical trial, maintaining of alcohol abstinence (PDA, TAC, HDD); type: in vivo, human
# Protocol: The following doses were examined: • 0.75 g sodium oxybate three times daily—i.e. 2.25 g per day (99 patients) • 1.25 g sodium oxybate three times daily—i.e. 3.75 g per day (99 patients) • 1.75 g sodium oxybate three times daily—i.e. 5.25 g per day (99 patients) • 2.25 g sodium oxybate three times daily—i.e. 6.75 g per day (100 patients) • Placebo group (99 patients)
# The unit doses, packaged in sachets, were administered via oral route in solid form, more particularly in the form of granules.
# Efficacy was measured via percentage days of abstinence (PDA), reduced daily intake of alcohol (TAC) and the number of heavy drinking days (HDD). It was sought to analyse the correlation between efficacy of treatment and dose in mg/kg/d. In this respect the conversion to mg/kg/d was made using the following formula: unit dose in g of sodium oxybate×3/patient weight.
# In the remainder of the present description, reference is made to two categories of alcoholic patients: • patients with mild to moderate alcohol dependence; • patients with severe to very severe alcohol dependence.
Compound,increase of the main pharmacokinetic parameters compared with patients not suffering from liver disease [1],AUC(0-t) ([2]; 0.37 g dose) [ng·h/mL],Cmax ([2]; 0.37 g dose) [ng/mL],AUC(0-t) ([2]; 0.75 g dose) [ng·h/mL],Cmax ([2]; 0.75 g dose) [ng/mL],AUC(0-t) ([2]; 1.25 g dose) [ng·h/mL],Cmax ([2]; 1.25 g dose) [ng/mL],AUC(0-t) ([2]; 1.75 g dose) [ng·h/mL],Cmax ([2]; 1.75 g dose) [ng/mL],"efficacy as share of the efficacy of the optimal dose ([3]; mild or moderate alcohol dependence, doses higher than 1.25 g)","unit dose of optimum efficacy (statistical models) ([3]; mildly or moderately alcohol-dependent patients without liver disease, three times daily) [g]","side effects ([3]; severe or very severe alcohol dependence without liver disease, above 1.75 g three times daily)","optimum unit dose (polynomial regression models) ([3]; severe or very severe alcohol dependence, without liver disease, three times daily)","efficacy lower than that of the optimal dose ([3]; severe or very severe alcohol dependence, doses lower than 1.25 g or higher than 1.75 g)"
O=C(O)CCCO [gamma-hydroxybutyric acid],over 120%,,,,,,,,,,,,,
O=C(O)CCCO [sodium oxybate],,14800,11500,30000,23000,50000,39000,70000,54500,about 20%,0.75,"side effects become more numerous and frequent, in particular a sedative effect with nausea and marked fatigue",about 1.5 g,up to 80%
